Patent publication US11384062B2 (CombiPhos Catalysts, Inc., priority 2017, dated 2022)

Legend:
[1] = system: SF-295; conditions: 10 μM single dose; CNS Cancer SF-295
Source text: (§1) The test compounds were screened for anticancer activity at the Development Therapeutic Program (DTP), National Cancer Institute (NCI), USA, against a full NCI 59 cell line panel (six cell lines of leukemia, nine cell lines of lung cancer, seven cell lines of colon cancer, six cell lines of CNS cancer, nine cell lines of melanoma, seven cell lines of ovarian cancer, seven cell lines of renal cancer, two cell lines of prostate cancer, and six cell lines of breast cancer) representing nine human systems in total as leukemia, melanoma, and cancers of the lungs, colon, brain, breast, ovary, kidney, and prostate, according to the applied protocol. A primary in vitro one dose anticancer assay was performed at a single dose (10 μM) against the full NCI 59 cell line panel. The one dose data was reported as a mean graph of the percent growth of treated cells. The number reported for the single dose assay was growth relative to the no drug control and relative to the initial number of cells at time 0. […] A value of −40 means 40% lethality. A value of −100 means all cells are dead.

[2] = system: M14; conditions: 10 μM single dose; Melanoma M14
Source text: as §1

[3] = system: SNB-75; conditions: 10 μM single dose; CNS Cancer SNB-75
Source text: as §1

[4] = system: SNB-19; conditions: 10 μM single dose; CNS Cancer SNB-19
Source text: as §1

[5] = system: SF-268; conditions: 10 μM single dose; CNS Cancer SF-268
Source text: as §1

[6] = system: SK-MEL-2; conditions: 10 μM single dose; Melanoma SK-MEL-2
Source text: as §1

[7] = system: OVCAR-5; conditions: 10 μM single dose; Ovarian Cancer OVCAR-5
Source text: as §1

[8] = system: RPMI-8226; conditions: 10 μM single dose; Leukemia RPMI-8226
Source text: as §1

[9] = system: U251; conditions: 10 μM single dose; CNS Cancer U251
Source text: as §1

[10] = system: OVCAR-3; conditions: 10 μM single dose; Ovarian Cancer OVCAR-3
Source text: as §1

[11] = system: EKVX; conditions: 10 μM single dose; Non-Small Cell Lung Cancer EKVX
Source text: as §1

[12] = system: HCC-2998; conditions: 10 μM single dose; Colon Cancer HCC-2998
Source text: as §1

[13] = system: NCI/ADR-RES; conditions: 10 μM single dose; Ovarian Cancer NCI/ADR-RES
Source text: as §1

[14] = system: HT29; conditions: 10 μM single dose; Colon Cancer HT29
Source text: as §1

[15] = system: HS 578T; conditions: 10 μM single dose; Breast Cancer HS 578T
Source text: as §1

[16] = system: 786-0; conditions: 10 μM single dose; Renal Cancer 786-0
Source text: as §1

[17] = system: MDA-MB-231/ATCC; conditions: 10 μM single dose; Breast Cancer MDA-MB-231/ATCC
Source text: as §1

[18] = system: LOX IMVI; conditions: 10 μM single dose; Melanoma LOX IMVI
Source text: as §1

[19] = system: SN12C; conditions: 10 μM single dose; Renal Cancer SN12C
Source text: as §1

[20] = system: RXF 393; conditions: 10 μM single dose; Renal Cancer RXF 393
Source text: as §1

[21] = system: HCT-15; conditions: 10 μM single dose; Colon Cancer HCT-15
Source text: as §1

[22] = system: HOP-62; conditions: 10 μM single dose; Non-Small Cell Lung Cancer HOP-62
Source text: as §1

| SMILES | Growth Percentage [1] | Growth Percentage [2] | Growth Percentage [3] | Growth Percentage [4] | Growth Percentage [5] | Growth Percentage [6] | Growth Percentage [7] | Growth Percentage [8] | Growth Percentage [9] | Growth Percentage [10] | Growth Percentage [11] | Growth Percentage [12] | Growth Percentage [13] | Growth Percentage [14] | Growth Percentage [15] | Growth Percentage [16] | Growth Percentage [17] | Growth Percentage [18] | Growth Percentage [19] | Growth Percentage [20] | other results |
| --- | --- | --- | --- | --- | --- | --- | --- | --- | --- | --- | --- | --- | --- | --- | --- | --- | --- | --- | --- | --- | --- |
| [2H]c1c([2H])c(C2([2H])C([2H])NC([2H])C([2H])C2[2H])c([2H])c([2H])c1-n1cc2cccc(C(N)=O)c2n1 (stereo not shown) [Example 4, 2-(4-(piperidin-3-yl-2,3,4,5,6-d5)phenyl-2,3,5,6-d4)-2H-indazole-7-carboxamide] | 85.63% | 84.68% | 70.09% | 88.53% | 89.52% | 101.94% | 89.23% | 90.85% | 83.63% | 107.53% | 88.21% | 83.97% | 84.74% | 77.66% | 86.01% | 92.79% | 80.47% | 70.64% | 89.59% | 102.74% |  |
| [2H]C1([2H])NC([2H])([2H])C([2H])(c2ccc(-n3cc4cccc(C(N)=O)c4n3)cc2)C([2H])([2H])C1([2H])[2H] (racemic) [Example 3, 2-(4-(piperidin-3-yl-2,2,3,4,4,5,5,6,6-d9)phenyl)-2H-indazole-7-carboxamide] | 96.74% | 98.03% | 76.50% | 91.61% | 88.94% | 117.90% | 100.56% | 87.86% | 85.78% | 103.07% | 100.49% | 88.49% | 97.76% | 93.28% | 86.68% | 103.31% | 83.62% | 76.95% | 93.25% | 111.56% | Growth Percentage [21]: 100.98%; Growth Percentage [22]: 93.86% |
| [2H]c1c([2H])c(-n2nc3c(C(N)=O)cccc3c2[2H])c([2H])c([2H])c1C1CCCNC1 (racemic) [Example 11, 2-(4-(piperidin-3-yl)phenyl-2,3,5,6-d4)-2H-indazole-3-d-7-carboxamide] | 90.94% | 90.64% | 76.35% | 85.34% | 82.89% | 108.51% | 89.69% | 78.32% | 92.89% | 97.70% | 91.65% | 80.10% | 89.85% | 87.71% | 81.82% | 97.43% | 76.99% | 71.49% | 81.90% | 107.27% | Growth Percentage [21]: 85.76%; Growth Percentage [22]: 94.55% |
